Measured values: US12324858B2, “Pharmaceutical formulation and system and method for delivery” (Rilento Pharma, LLC, priority 2018, dated 2025)
Entries after “also recorded” stand apart in the source; their conditions may differ. Structures can show the parent of a compound that is named as a salt.

Key:
[1] = Suspension test of candidate liquids with GLBG (gelation); assay type: physicochemical; settings: for Gelation of GLBG suspended in the liquid: 2/1 w/w liquid to GLBG, monitoring window 0-24 and 0-48 hours; for Suitable for use in a hydrophilic device / Suitable for use in a hydrophobic device: suspension test with GLBG
Protocol: The suspensions are then qualitatively monitored as a function of time for physical changes, such as the onset of gelation, by using any one of a variety of possible qualitative or quantitative techniques. Note that other liquid to gelatin ratios can also be employed, including ratios that are intended for use in various end-applications. […] Monitoring times of suspensions can include various time points after the suspensions are mixed, including for example, 5 minutes after mixing, 0.5 hours after mixing, 1 hour after mixing, 5 hours after mixing, 24 hours after mixing, 48 hours after mixing, 1 week after mixing, 1 month after mixing, 6 months after mixing, 1 year after mixing, and even 2 to 5 years after mixing. […] Of course, quantitative measurements can also be employed if so desired (e.g., Brookfield viscosity, parallel plate dynamic mechanical techniques, etc.). […] Conversely, if there are signs of gelation, including for example, any one or more of the following responses before the end of the monitoring time window: 1) development of elastic recovery; 2) visualization of permanent coalescence of gelatin particulates; or 3) solid network formation with loss of pourability, then these liquids are by definition excluded as candidates for use in more hydrophobic formulations, and are instead considered as candidate liquids for use in preparing more hydrophilic formulations. […] A spatula was used to stir the ingredients to create a suspension. The suspensions were then allowed to set under static conditions and were qualitatively monitored as a function of time. Results at t=5 minutes after mixing, t=0.5 hours after mixing, t=5 hours after mixing, t=24 hours after mixing, and at t=48 hours after mixing were reported. The tests were conducted at 20 degrees C. with one exception, one of the tests was conducted at 27 degrees C. to ensure that the carrier was above its melt point and in its liquid state.

[2] = mineral oil estimated, cited from earlier work; for HANtotal: Hansen Solubility Parameter, total; for HAN δDispersion / HAN δH-bonding / HAN δPolar: Hansen
[3] = Background UV spectra of individual ingredients in pH-2 water; assay type: physicochemical
From the text: Using the same instrument parameters and cuvettes, spectra were also acquired for each individual ingredient in the mixtures for the purpose of determining background contributions to the overall absorbance spectra that were obtained for the fully formulated mixtures. […] In this way, the background experiments were representative of the highest degree of spectral background contribution that might be potentially observed for the fully formulated devices if the devices were to completely disintegrate and dissolve during the water-soak experiment.
BUP-HCl is known to be a strong chromophore with a documented UV absorption maximum at 262 nm (Corciova, A., Eur. Chem. Bull., 2012, 2(8), 554-557).

CCCCCCCC(=O)OCC(COC(=O)CCCCCCC)OC(=O)CCCCCCC [caprylic triglyceride]
Gelation of GLBG suspended in the liquid [1]: no signs of gelation | Suitable for use in a hydrophilic device [1]: No | Suitable for use in a hydrophobic device [1]: Yes | HANtotal [2]: 17.0 MPa^1/2 | HAN δDispersion [2]: 16.2 MPa^1/2 | HAN δH-bonding [2]: 4 MPa^1/2 | HAN δPolar [2]: 3.4 MPa^1/2

water
Gelation of GLBG suspended in the liquid [1]: lead to gelation of gelatin; also recorded: gelation and elastic network formation was observed to begin almost immediately | Suitable for use in a hydrophilic device [1]: Yes | Suitable for use in a hydrophobic device [1]: No | HAN δDispersion [2]: 15.5 MPa^1/2 | HAN δH-bonding [2]: 42.4 MPa^1/2 | HAN δPolar [2]: 16.0 MPa^1/2

CCCCN1CCCCC1C(=O)Nc1c(C)cccc1C (stereo not shown) [BUP-HCl, bupivacaine]
Solubility in pH-2 water ([3]; mildly acidic conditions, pH-2 water (dilute HCl)): completely soluble under these conditions

OCC(O)CO [Glycerol]
HANtotal [2]: 36.2 MPa^1/2 | HAN δDispersion [2]: 17.4 MPa^1/2 | HAN δH-bonding [2]: 29.3 MPa^1/2 | HAN δPolar [2]: 12.1 MPa^1/2 | HSP ([2]; Hildebrand Solubility Parameter): 33.8 MPa^1/2

CCCCCCCCCCCCCCCC(=O)OC(C)C [isopropyl palmitate]
Gelation of GLBG suspended in the liquid [1]: no signs of gelation | Suitable for use in a hydrophilic device [1]: No | Suitable for use in a hydrophobic device [1]: Yes

OCC(O)CO [Glycerin]
Gelation of GLBG suspended in the liquid [1]: lead to gelation of gelatin | Gelation of GLBG suspended in the liquid ([1]; listed as glycerin): work time window prior to the onset of gelation was observed to be significantly longer | Suitable for use in a hydrophilic device [1]: Yes | Suitable for use in a hydrophobic device [1]: No

CCCCN1CCCCC1C(=O)Nc1c(C)cccc1C (stereo not shown) [BUP free base, bupivacaine]
Relative Absorbance at 270 nm at t = 24 hrs. ([3]; individual ingredient in pH-2 water, background UV spectrum): > or = 4 (i.e., | Solubility in water ([3]; water): low solubility in water
